Numbered stars: 1 amine (or outer) side, 2 acyl side, 3 side chain; on linkers, the order of the positions; unused ones are H or OH. Bridge positions count the residues as written; N and C are the ends. Square brackets hold non-standard residues; d marks the D form. Peptide text beside a SMILES is read from it. * marks the point of attachment. X18 = O=C(O)COCCc1ccc(-c2ccc(C[C@H](N[*:1])C(=O)[*:2])cc2)cc1; Ala(Nα-(CH2)3NH) = C[C@@H](C(=O)[*:2])N(CCCN[*:3])[*:1]; X46 = COCc1ccc(-c2ccc(C[C@H](N[*:1])C(=O)[*:2])cc2)cc1; Ala(4-isoquinolinyl) = N[C@@H](Cc1cncc2ccccc12)C(=O)O; X39 = COc1cccc(-c2ccc(C[C@H](N[*:1])C(=O)[*:2])cc2)c1; X40 = O=C([C@H](Cc1ccc(-c2cccc(O)c2)cc1)N[*:1])[*:2]; Trp(5-CN) = N#Cc1ccc2[nH]cc(C[C@H](N)C(=O)O)c2c1; Phe(3-CF3) = N[C@@H](Cc1cccc(C(F)(F)F)c1)C(=O)O; Trp(7-Me) = Cc1cccc2c(C[C@H](N)C(=O)O)c[nH]c12; Trp(2-Me) = Cc1[nH]c2ccccc2c1C[C@H](N)C(=O)O; Bip = N[C@@H](Cc1ccc(-c2ccccc2)cc1)C(=O)O; Phe(2-CN) = N#Cc1ccccc1C[C@H](N)C(=O)O; Phe(3-F) = N[C@@H](Cc1cccc(F)c1)C(=O)O; NEtAla = CCN[C@@H](C)C(=O)O; Carboxymethyl = O=C(O)C*; NMeA = CN[C@@H](C)C(=O)O; Dab = NCC[C@H](N)C(=O)O; Propargyl = C#CC*
biological target: T1, PE-labeled human PD-L1-Ig binding to Jurkat cell line over-expressing human PD-1 (Jurkat-PD-1) (Homo sapiens, UniProt Q15116); test: Jurkat-PD-1 Cell Binding High-Content Screening Assay (CBA): Method 1; conditions: Jurkat-hPD-1 cells, PE-labeled PD-L1-Ig 20 nM final; read-out: Jurkat HPDL1 PD1 IC50 (uM) (Method 1)
T1 construct: expressed in transfected cells; host or cells: Jurkat
T1 sequence (Q15116 25-288): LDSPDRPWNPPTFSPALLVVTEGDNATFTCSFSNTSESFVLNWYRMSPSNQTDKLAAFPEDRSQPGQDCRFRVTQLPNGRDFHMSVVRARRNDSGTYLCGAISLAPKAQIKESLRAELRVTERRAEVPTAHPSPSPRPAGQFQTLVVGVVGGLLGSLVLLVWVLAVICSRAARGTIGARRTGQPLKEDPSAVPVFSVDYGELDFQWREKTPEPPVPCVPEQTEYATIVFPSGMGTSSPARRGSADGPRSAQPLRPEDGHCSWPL

IC50 [µM]	SMILES
0.06	CC(C)C[C@@H]1NC(=O)[C@H](CCCNC(=N)N)NC(=O)[C@@H](CC(C)C)NC(=O)[C@H](C)N(C)C(=O)[C@H](CCCNC(=N)N)NC(=O)[C@H](Cc2ccc(-c3ccccc3)cc2)NC(=O)[C@H](C(C)C)NC(=O)[C@H](Cc2cccc(C(F)(F)F)c2)NC(=O)[C@H](CC(=O)O)NC(=O)[C@H](Cc2ccc(O)cc2)NC(=O)[C@H](CC(N)=O)NC(=O)CSC[C@@H](C(=O)N[C@@H](C)C(N)=O)NC(=O)[C@H]([C@@H](C)O)NC(=O)[C@H](C(C)C)NC1=O [Compound 1198] ({CH2CO}-NYD[Phe(3-CF3)]V[Bip]R[NMeA][dL]RLVTCA-NH2; thioether N-14)
0.45	CC(C)C[C@@H]1NC(=O)[C@H](CCCNC(=N)N)NC(=O)[C@@H](CC(C)C)NC(=O)[C@H](C)N(C)C(=O)[C@H](CCCNC(=N)N)NC(=O)[C@H](Cc2ccc(-c3ccccc3)cc2)NC(=O)[C@H](C(C)C)NC(=O)[C@H](Cc2cccc(F)c2)NC(=O)[C@H](CC(=O)O)NC(=O)[C@H](Cc2ccc(O)cc2)NC(=O)[C@H](CC(N)=O)NC(=O)CSC[C@@H](C(=O)N[C@@H](C)C(N)=O)NC(=O)[C@H]([C@@H](C)O)NC(=O)[C@H](C(C)C)NC1=O [Compound 1199] ({CH2CO}-NYD[Phe(3-F)]V[Bip]R[NMeA][dL]RLVTCA-NH2; thioether N-14)
0.49	CC(C)C[C@@H]1NC(=O)[C@H](CCN)NC(=O)[C@@H](CC(C)C)NC(=O)[C@H](C)N(C)C(=O)[C@H](CCCNC(=N)N)NC(=O)[C@H](Cc2ccc(-c3ccccc3)cc2)NC(=O)[C@H](C(C)C)NC(=O)[C@H](Cc2cncc3ccccc23)NC(=O)[C@H](CC(=O)O)NC(=O)[C@H](Cc2ccc(O)cc2)NC(=O)[C@H](Cc2ccccc2)NC(=O)CSC[C@@H](C(=O)N[C@@H](C)C(N)=O)NC(=O)[C@H]([C@@H](C)O)NC(=O)[C@H](C(C)C)NC1=O [Compound 1200] ({CH2CO}-FYD[Ala(4-isoquinolinyl)]V[Bip]R[NMeA][dL][Dab]LVTCA-NH2; thioether N-14)
0.56	Cc1cccc2c(C[C@@H]3NC(=O)[C@H](CC(=O)O)NC(=O)[C@H](Cc4ccc(O)cc4)NC(=O)[C@H](Cc4ccccc4)NC(=O)CSC[C@@H](C(=O)N[C@@H](C)C(N)=O)NC(=O)[C@H]([C@@H](C)O)NC(=O)[C@H](C(C)C)NC(=O)[C@H](CC(C)C)NC(=O)[C@H](CCN)NC(=O)[C@@H](CC(C)C)NC(=O)[C@H](C)N(C)C(=O)[C@H](CCCNC(=N)N)NC(=O)[C@H](Cc4ccc(-c5ccccc5)cc4)NC(=O)[C@H](C(C)C)NC3=O)c[nH]c12 [Compound 1201] ({CH2CO}-FYD[Trp(7-Me)]V[Bip]R[NMeA][dL][Dab]LVTCA-NH2; thioether N-14)
0.73	Cc1[nH]c2ccccc2c1C[C@@H]1NC(=O)[C@H](CC(=O)O)NC(=O)[C@H](Cc2ccc(O)cc2)NC(=O)[C@H](Cc2ccccc2)NC(=O)CSC[C@@H](C(=O)N[C@@H](C)C(N)=O)NC(=O)[C@H]([C@@H](C)O)NC(=O)[C@H](C(C)C)NC(=O)[C@H](CC(C)C)NC(=O)[C@H](CCN)NC(=O)[C@@H](CC(C)C)NC(=O)[C@H](C)N(C)C(=O)[C@H](CCCNC(=N)N)NC(=O)[C@H](Cc2ccc(-c3ccccc3)cc2)NC(=O)[C@H](C(C)C)NC1=O [Compound 1202] ({CH2CO}-FYD[Trp(2-Me)]V[Bip]R[NMeA][dL][Dab]LVTCA-NH2; thioether N-14)
0.1	CC(C)C[C@@H]1NC(=O)[C@H](CCN)NC(=O)[C@@H](CC(C)C)NC(=O)[C@H](C)N(C)C(=O)[C@H](CCCNC(=N)N)NC(=O)[C@H](Cc2ccc(-c3ccccc3)cc2)NC(=O)[C@H](C(C)C)NC(=O)[C@H](Cc2c[nH]c3ccc(C#N)cc23)NC(=O)[C@H](CC(=O)O)NC(=O)[C@H](Cc2ccc(O)cc2)NC(=O)[C@H](Cc2ccccc2)NC(=O)CSC[C@@H](C(=O)N[C@@H](C)C(N)=O)NC(=O)[C@H]([C@@H](C)O)NC(=O)[C@H](C(C)C)NC1=O [Compound 1203] ({CH2CO}-FYD[Trp(5-CN)]V[Bip]R[NMeA][dL][Dab]LVTCA-NH2; thioether N-14)
0.33	CC(C)C[C@@H]1NC(=O)[C@H](CCN)NC(=O)[C@@H](CC(C)C)NC(=O)[C@H](C)N(C)C(=O)[C@H](CCCNC(=N)N)NC(=O)[C@H](Cc2ccc(-c3ccccc3)cc2)NC(=O)[C@H](C(C)C)NC(=O)[C@H](Cc2ccccc2C#N)NC(=O)[C@H](CC(=O)O)NC(=O)[C@H](Cc2ccc(O)cc2)NC(=O)[C@H](Cc2ccccc2)NC(=O)CSC[C@@H](C(=O)N[C@@H](C)C(N)=O)NC(=O)[C@H]([C@@H](C)O)NC(=O)[C@H](C(C)C)NC1=O [Compound 1204] ({CH2CO}-FYD[Phe(2-CN)]V[Bip]R[NMeA][dL][Dab]LVTCA-NH2; thioether N-14)
0.81	COCc1ccc(-c2ccc(C[C@@H]3NC(=O)[C@H](C(C)C)NC(=O)[C@H](Cc4c[nH]c5ccccc45)NC(=O)[C@H](CC(=O)O)NC(=O)[C@H](Cc4ccc(O)cc4)NC(=O)[C@H](CC(N)=O)NC(=O)CSC[C@@H](C(=O)N[C@@H](C)C(N)=O)NC(=O)[C@H]([C@@H](C)O)NC(=O)[C@H](C(C)C)NC(=O)[C@H](CC(C)C)NC(=O)[C@H](CCN)NC(=O)[C@@H](CC(C)C)NC(=O)[C@H](C)N(C)C(=O)[C@H](CCCNC(=N)N)NC3=O)cc2)cc1 [Compound 1205] ({CH2CO}-NYDWV[X46]R[NMeA][dL][Dab]LVTCA-NH2; thioether N-14)
0.59	CC(C)C[C@@H]1NC(=O)[C@H](CCN)NC(=O)[C@@H](CC(C)C)NC(=O)[C@H](C)N(C)C(=O)[C@H](CCCNC(=N)N)NC(=O)[C@H](Cc2ccc(-c3ccccc3)cc2)NC(=O)[C@H](C(C)C)NC(=O)[C@H](Cc2c[nH]c3ccccc23)NC(=O)[C@H](CC(N)=O)NC(=O)[C@H](Cc2ccc(OCC(=O)O)cc2)NC(=O)[C@H](CC(N)=O)NC(=O)CSC[C@@H](C(=O)N[C@@H](C)C(N)=O)NC(=O)[C@H]([C@@H](C)O)NC(=O)[C@H](C(C)C)NC1=O [Compound 1206] ({CH2CO}-NY(Carboxymethyl)NWV[Bip]R[NMeA][dL][Dab]LVTCA-NH2; thioether N-14)
0.07	CCN1C(=O)[C@H](CCCNC(=N)N)NC(=O)[C@H](Cc2ccc(-c3ccccc3)cc2)NC(=O)[C@H](C(C)C)NC(=O)[C@H](Cc2c[nH]c3ccccc23)NC(=O)[C@H](CC(=O)O)NC(=O)[C@H](Cc2ccc(O)cc2)NC(=O)[C@H](CC(N)=O)NC(=O)CSC[C@@H](C(=O)N[C@@H](C)C(N)=O)NC(=O)[C@H]([C@@H](C)O)NC(=O)[C@H](C(C)C)NC(=O)[C@H](CC(C)C)NC(=O)[C@H](CCN)NC(=O)[C@@H](CC(C)C)NC(=O)[C@@H]1C [Compound 1207] ({CH2CO}-NYDWV[Bip]R[NEtAla][dL][Dab]LVTCA-NH2; thioether N-14)
0.14	C#CCOc1ccc(C[C@@H]2NC(=O)[C@H](CC(N)=O)NC(=O)CSC[C@@H](C(=O)N[C@@H](C)C(N)=O)NC(=O)[C@H]([C@@H](C)O)NC(=O)[C@H](C(C)C)NC(=O)[C@H](CC(C)C)NC(=O)[C@H](CCN)NC(=O)[C@@H](CC(C)C)NC(=O)[C@H](C)N(C)C(=O)[C@H](CCCNC(=N)N)NC(=O)[C@H](Cc3ccc(-c4ccccc4)cc3)NC(=O)[C@H](C(C)C)NC(=O)[C@H](Cc3c[nH]c4ccccc34)NC(=O)[C@H](CC(=O)O)NC2=O)cc1 [Compound 1208] ({CH2CO}-NY(Propargyl)DWV[Bip]R[NMeA][dL][Dab]LVTCA-NH2; thioether N-14)
0.14	CC(C)C[C@@H]1NC(=O)[C@H](CCN)NC(=O)[C@@H](CC(C)C)NC(=O)[C@H](C)N(CCCN)C(=O)[C@H](CCCNC(=N)N)NC(=O)[C@H](Cc2ccc(-c3ccccc3)cc2)NC(=O)[C@H](C(C)C)NC(=O)[C@H](Cc2c[nH]c3ccccc23)NC(=O)[C@H](CC(=O)O)NC(=O)[C@H](Cc2ccc(O)cc2)NC(=O)[C@H](CC(N)=O)NC(=O)CSC[C@@H](C(=O)N[C@@H](C)C(N)=O)NC(=O)[C@H]([C@@H](C)O)NC(=O)[C@H](C(C)C)NC1=O [Compound 1209] ({CH2CO}-NYDWV[Bip]R[Ala(Nα-(CH2)3NH)][dL][Dab]LVTCA-NH2; thioether N-14)
0.88	CC(C)C[C@@H]1NC(=O)[C@H](CCN)NC(=O)[C@@H](CC(C)C)NC(=O)[C@H](C)N(C)C(=O)[C@H](CCCNC(=N)N)NC(=O)[C@H](Cc2ccc(-c3ccc(CCOCC(=O)O)cc3)cc2)NC(=O)[C@H](C(C)C)NC(=O)[C@H](Cc2c[nH]c3ccccc23)NC(=O)[C@H](CC(=O)O)NC(=O)[C@H](Cc2ccc(O)cc2)NC(=O)[C@H](CC(N)=O)NC(=O)CSC[C@@H](C(=O)N[C@@H](C)C(N)=O)NC(=O)[C@H]([C@@H](C)O)NC(=O)[C@H](C(C)C)NC1=O [Compound 1210] ({CH2CO}-NYDWV[X18]R[NMeA][dL][Dab]LVTCA-NH2; thioether N-14)
0.37	COc1cccc(-c2ccc(C[C@@H]3NC(=O)[C@H](C(C)C)NC(=O)[C@H](Cc4c[nH]c5ccccc45)NC(=O)[C@H](CC(=O)O)NC(=O)[C@H](Cc4ccc(O)cc4)NC(=O)[C@H](CC(N)=O)NC(=O)CSC[C@@H](C(=O)N[C@@H](C)C(N)=O)NC(=O)[C@H]([C@@H](C)O)NC(=O)[C@H](C(C)C)NC(=O)[C@H](CC(C)C)NC(=O)[C@H](CCN)NC(=O)[C@@H](CC(C)C)NC(=O)[C@H](C)N(C)C(=O)[C@H](CCCNC(=N)N)NC3=O)cc2)c1 [Compound 1211] ({CH2CO}-NYDWV[X39]R[NMeA][dL][Dab]LVTCA-NH2; thioether N-14)
0.69	CC(C)C[C@@H]1NC(=O)[C@H](CCN)NC(=O)[C@@H](CC(C)C)NC(=O)[C@H](C)N(C)C(=O)[C@H](CCCNC(=N)N)NC(=O)[C@H](Cc2ccc(-c3cccc(O)c3)cc2)NC(=O)[C@H](C(C)C)NC(=O)[C@H](Cc2c[nH]c3ccccc23)NC(=O)[C@H](CC(=O)O)NC(=O)[C@H](Cc2ccc(O)cc2)NC(=O)[C@H](CC(N)=O)NC(=O)CSC[C@@H](C(=O)N[C@@H](C)C(N)=O)NC(=O)[C@H]([C@@H](C)O)NC(=O)[C@H](C(C)C)NC1=O [Compound 1212] ({CH2CO}-NYDWV[X40]R[NMeA][dL][Dab]LVTCA-NH2; thioether N-14)

Source: patent US20240409585A1, “MACROCYCLIC IMMUNOMODULATORS” (priority 2021, published 2024)
